In ChEMBL document CHEMBL2010719, “Tyrosine modified analogues of the α4β7 integrin inhibitor biotin-R₈ERY prepared via Click Chemistry: synthesis and biological evaluation” (Bioorg Med Chem, 2012):
pIC50: −log10 of the molar value. Residues, ends and D or L forms follow the SMILES beside them. *: point of attachment. X6 = CC(=O)OC[C@@H]1O[C@H](n2cc(C*)nn2)[C@@H](OC(C)=O)[C@H](OC(C)=O)[C@@H]1OC(C)=O; X3 = CC(=O)N[C@H]1[C@H](OC(C)=O)[C@H](OC(C)=O)[C@H](COC(C)=O)O[C@@H]1n1cc(C*)nn1; X1 = CC(=O)OC[C@@H]1OC(OC(C)=O)[C@@H](n2cc(C*)nn2)[C@H](OC(C)=O)[C@@H]1OC(C)=O; X9 = CC(=O)N[C@@H]1[C@H](OCCCn2cc(C*)nn2)O[C@@H](CO)[C@@H](O)[C@H]1O; X4 = CC(=O)N[C@H]1[C@H](O)[C@H](O)[C@H](CO)O[C@@H]1n1cc(C*)nn1; X5 = O=C(N[C@@H](Cn1cc(C*)nn1)C(=O)O)OCC1c2ccccc2-c2ccccc21; X2 = OC[C@@H]1O[C@H](n2cc(C*)nn2)[C@@H](O)[C@H](O)[C@@H]1O; Biotin = O=C1N[C@H]2[C@H](CS[C@H]2CCCCC(=O)*)N1; X8 = O=P(O)(O)CCn1cc(C*)nn1; X7 = O=C(O)Cn1cc(C*)nn1; Propargyl = C#CC*

Columns and labels:
Type in all cases: cell-based
[1] = target: T1, Integrin alpha-4/beta-7 (Mus musculus) (UniProt Q00651+P26011); assay: Inhibition of integrin alpha4 beta7 receptor in mouse TK1 cells assessed as inhibition of Mn2+-activated cell adhesion to mouse MAdCAM-1-Fc at 100 uM after 1 hr using methylene blue staining relative to biotin-r9YDRREY
[2] = target: T1, Integrin alpha-4/beta-7 (Mus musculus); assay: Inhibition of integrin alpha4 beta7 receptor in mouse TK1 cells assessed as inhibition of Mn2+-activated cell adhesion to mouse MAdCAM-1-Fc at 50 uM after 1 hr by methylene blue staining analysis relative to biotin-r9YDRREY
[3] = target: T2, Integrin alpha-4/beta-7 (Mus musculus, UniProt P26011+Q00651); assay: Inhibition of integrin alpha4 beta7 receptor in mouse TK1 cells assessed as inhibition of Mn2+-activated cell adhesion to mouse MAdCAM-1-Fc after 1 hr using methylene blue staining
T2 sequence (Q00651 whole entry): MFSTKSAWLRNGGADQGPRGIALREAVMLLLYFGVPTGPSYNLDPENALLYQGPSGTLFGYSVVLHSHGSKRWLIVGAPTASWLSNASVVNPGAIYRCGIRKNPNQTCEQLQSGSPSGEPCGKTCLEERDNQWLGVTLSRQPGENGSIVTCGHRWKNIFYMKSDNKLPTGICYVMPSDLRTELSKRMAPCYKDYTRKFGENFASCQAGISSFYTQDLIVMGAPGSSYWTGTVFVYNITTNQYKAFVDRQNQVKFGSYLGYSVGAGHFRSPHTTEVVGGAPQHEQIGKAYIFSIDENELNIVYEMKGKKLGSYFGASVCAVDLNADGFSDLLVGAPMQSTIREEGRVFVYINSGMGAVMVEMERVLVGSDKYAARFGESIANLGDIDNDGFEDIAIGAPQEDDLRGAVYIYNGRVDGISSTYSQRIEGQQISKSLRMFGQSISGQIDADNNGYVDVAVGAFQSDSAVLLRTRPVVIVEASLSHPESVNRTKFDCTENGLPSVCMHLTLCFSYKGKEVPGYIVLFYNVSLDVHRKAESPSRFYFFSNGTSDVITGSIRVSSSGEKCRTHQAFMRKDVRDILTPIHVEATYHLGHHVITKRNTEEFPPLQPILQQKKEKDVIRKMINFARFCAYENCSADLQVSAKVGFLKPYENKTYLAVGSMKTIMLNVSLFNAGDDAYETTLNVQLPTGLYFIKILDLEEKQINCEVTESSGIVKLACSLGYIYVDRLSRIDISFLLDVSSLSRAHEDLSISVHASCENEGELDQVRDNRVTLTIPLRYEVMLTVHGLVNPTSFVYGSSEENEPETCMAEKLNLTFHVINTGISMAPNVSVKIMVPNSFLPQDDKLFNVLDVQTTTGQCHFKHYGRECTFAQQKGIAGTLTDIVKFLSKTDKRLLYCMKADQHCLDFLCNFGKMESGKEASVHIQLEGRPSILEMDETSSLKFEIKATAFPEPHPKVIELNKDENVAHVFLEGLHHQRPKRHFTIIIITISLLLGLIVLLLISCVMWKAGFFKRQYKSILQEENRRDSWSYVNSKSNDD
T2 sequence (P26011 whole entry): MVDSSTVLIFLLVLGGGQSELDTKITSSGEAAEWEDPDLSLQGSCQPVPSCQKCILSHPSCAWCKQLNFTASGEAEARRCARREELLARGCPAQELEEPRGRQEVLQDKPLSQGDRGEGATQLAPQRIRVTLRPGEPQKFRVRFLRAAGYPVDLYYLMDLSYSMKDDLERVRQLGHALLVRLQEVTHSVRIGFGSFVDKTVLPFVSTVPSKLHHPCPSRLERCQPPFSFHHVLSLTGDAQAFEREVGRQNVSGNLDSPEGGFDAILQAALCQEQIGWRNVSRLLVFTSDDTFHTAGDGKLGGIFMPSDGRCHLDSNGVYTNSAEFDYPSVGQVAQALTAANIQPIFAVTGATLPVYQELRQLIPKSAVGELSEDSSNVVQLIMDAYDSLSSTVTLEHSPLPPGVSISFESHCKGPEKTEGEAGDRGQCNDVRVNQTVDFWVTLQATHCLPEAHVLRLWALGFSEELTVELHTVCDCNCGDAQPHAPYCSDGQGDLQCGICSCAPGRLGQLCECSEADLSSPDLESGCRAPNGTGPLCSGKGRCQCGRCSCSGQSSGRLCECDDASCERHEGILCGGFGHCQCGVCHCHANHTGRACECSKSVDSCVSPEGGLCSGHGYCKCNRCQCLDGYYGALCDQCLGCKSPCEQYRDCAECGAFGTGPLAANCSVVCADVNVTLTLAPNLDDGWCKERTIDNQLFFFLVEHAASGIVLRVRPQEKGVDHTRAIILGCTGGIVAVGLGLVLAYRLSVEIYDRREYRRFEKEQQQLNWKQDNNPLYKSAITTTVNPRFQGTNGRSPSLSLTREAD

Row | inhibition [1] [%] | inhibition [2] [%] | pIC50 [3] | SMILES
1 | 111 | 114 | > 5.00 | N=C(N)NCCC[C@H](NC(=O)CCCC[C@@H]1SC[C@@H]2NC(=O)N[C@@H]21)C(=O)N[C@@H](CCCNC(=N)N)C(=O)N[C@@H](CCCNC(=N)N)C(=O)N[C@@H](CCCNC(=N)N)C(=O)N[C@@H](CCCNC(=N)N)C(=O)N[C@@H](CCCNC(=N)N)C(=O)N[C@@H](CCCNC(=N)N)C(=O)N[C@@H](CCCNC(=N)N)C(=O)N[C@@H](CCC(=O)O)C(=O)N[C@@H](CCCNC(=N)N)C(=O)N[C@@H](Cc1ccc(OCc2cn(C[C@H](NC(=O)OCC3c4ccccc4-c4ccccc43)C(=O)O)nn2)cc1)C(=O)O (Biotin-RRRRRRRRERY(X5)-OH)
2 | 39.8 | 39.8 |  | C#CCOc1ccc(C[C@H](NC(=O)[C@H](CCCNC(=N)N)NC(=O)[C@H](CCC(=O)O)NC(=O)[C@H](CCCNC(=N)N)NC(=O)[C@H](CCCNC(=N)N)NC(=O)[C@H](CCCNC(=N)N)NC(=O)[C@H](CCCNC(=N)N)NC(=O)[C@H](CCCNC(=N)N)NC(=O)[C@H](CCCNC(=N)N)NC(=O)[C@H](CCCNC(=N)N)NC(=O)[C@H](CCCNC(=N)N)NC(=O)CCCC[C@@H]2SC[C@@H]3NC(=O)N[C@@H]32)C(=O)O)cc1 (Biotin-RRRRRRRRERY(Propargyl)-OH)
3 | 52.5 | 47.4 |  | CC(=O)OC[C@@H]1O[C@H](n2cc(COc3ccc(C[C@H](NC(=O)[C@H](CCCNC(=N)N)NC(=O)[C@H](CCC(=O)O)NC(=O)[C@H](CCCNC(=N)N)NC(=O)[C@H](CCCNC(=N)N)NC(=O)[C@H](CCCNC(=N)N)NC(=O)[C@H](CCCNC(=N)N)NC(=O)[C@H](CCCNC(=N)N)NC(=O)[C@H](CCCNC(=N)N)NC(=O)[C@H](CCCNC(=N)N)NC(=O)[C@H](CCCNC(=N)N)NC(=O)CCCC[C@@H]4SC[C@@H]5NC(=O)N[C@@H]54)C(=O)O)cc3)nn2)[C@@H](OC(C)=O)[C@H](OC(C)=O)[C@@H]1OC(C)=O (Biotin-RRRRRRRRERY(X6)-OH)
4 | 46.5 | 40 |  | CC(=O)N[C@H]1[C@H](OC(C)=O)[C@H](OC(C)=O)[C@H](COC(C)=O)O[C@@H]1n1cc(COc2ccc(C[C@H](NC(=O)[C@H](CCCNC(=N)N)NC(=O)[C@H](CCC(=O)O)NC(=O)[C@H](CCCNC(=N)N)NC(=O)[C@H](CCCNC(=N)N)NC(=O)[C@H](CCCNC(=N)N)NC(=O)[C@H](CCCNC(=N)N)NC(=O)[C@H](CCCNC(=N)N)NC(=O)[C@H](CCCNC(=N)N)NC(=O)[C@H](CCCNC(=N)N)NC(=O)[C@H](CCCNC(=N)N)NC(=O)CCCC[C@@H]3SC[C@@H]4NC(=O)N[C@@H]43)C(=O)O)cc2)nn1 (Biotin-RRRRRRRRERY(X3)-OH)
5 | 34.9 | 56.1 |  | N=C(N)NCCC[C@H](NC(=O)CCCC[C@@H]1SC[C@@H]2NC(=O)N[C@@H]21)C(=O)N[C@@H](CCCNC(=N)N)C(=O)N[C@@H](CCCNC(=N)N)C(=O)N[C@@H](CCCNC(=N)N)C(=O)N[C@@H](CCCNC(=N)N)C(=O)N[C@@H](CCCNC(=N)N)C(=O)N[C@@H](CCCNC(=N)N)C(=O)N[C@@H](CCCNC(=N)N)C(=O)N[C@@H](CCC(=O)O)C(=O)N[C@@H](CCCNC(=N)N)C(=O)N[C@@H](Cc1ccc(OCc2cn(CC(=O)O)nn2)cc1)C(=O)O (Biotin-RRRRRRRRERY(X7)-OH)
6 | 105 | 104 | 4.30 | CC(=O)OC[C@@H]1OC(OC(C)=O)[C@@H](n2cc(COc3ccc(C[C@H](NC(=O)[C@H](CCCNC(=N)N)NC(=O)[C@H](CCC(=O)O)NC(=O)[C@H](CCCNC(=N)N)NC(=O)[C@H](CCCNC(=N)N)NC(=O)[C@H](CCCNC(=N)N)NC(=O)[C@H](CCCNC(=N)N)NC(=O)[C@H](CCCNC(=N)N)NC(=O)[C@H](CCCNC(=N)N)NC(=O)[C@H](CCCNC(=N)N)NC(=O)[C@H](CCCNC(=N)N)NC(=O)CCCC[C@@H]4SC[C@@H]5NC(=O)N[C@@H]54)C(=O)O)cc3)nn2)[C@H](OC(C)=O)[C@@H]1OC(C)=O (some centres not stated) (Biotin-RRRRRRRRERY(X1)-OH)
7 | 65.4 | 60.3 |  | N=C(N)NCCC[C@H](NC(=O)CCCC[C@@H]1SC[C@@H]2NC(=O)N[C@@H]21)C(=O)N[C@@H](CCCNC(=N)N)C(=O)N[C@@H](CCCNC(=N)N)C(=O)N[C@@H](CCCNC(=N)N)C(=O)N[C@@H](CCCNC(=N)N)C(=O)N[C@@H](CCCNC(=N)N)C(=O)N[C@@H](CCCNC(=N)N)C(=O)N[C@@H](CCCNC(=N)N)C(=O)N[C@@H](CCC(=O)O)C(=O)N[C@@H](CCCNC(=N)N)C(=O)N[C@@H](Cc1ccc(OCc2cn(CCP(=O)(O)O)nn2)cc1)C(=O)O (Biotin-RRRRRRRRERY(X8)-OH)
8 | 39.6 | 28 |  | CC(=O)N[C@H]1[C@H](O)[C@H](O)[C@H](CO)O[C@@H]1n1cc(COc2ccc(C[C@H](NC(=O)[C@H](CCCNC(=N)N)NC(=O)[C@H](CCC(=O)O)NC(=O)[C@H](CCCNC(=N)N)NC(=O)[C@H](CCCNC(=N)N)NC(=O)[C@H](CCCNC(=N)N)NC(=O)[C@H](CCCNC(=N)N)NC(=O)[C@H](CCCNC(=N)N)NC(=O)[C@H](CCCNC(=N)N)NC(=O)[C@H](CCCNC(=N)N)NC(=O)[C@H](CCCNC(=N)N)NC(=O)CCCC[C@@H]3SC[C@@H]4NC(=O)N[C@@H]43)C(=O)O)cc2)nn1 (Biotin-RRRRRRRRERY(X4)-OH)
9 | 62.7 | 60.2 |  | N=C(N)NCCC[C@H](NC(=O)CCCC[C@@H]1SC[C@@H]2NC(=O)N[C@@H]21)C(=O)N[C@@H](CCCNC(=N)N)C(=O)N[C@@H](CCCNC(=N)N)C(=O)N[C@@H](CCCNC(=N)N)C(=O)N[C@@H](CCCNC(=N)N)C(=O)N[C@@H](CCCNC(=N)N)C(=O)N[C@@H](CCCNC(=N)N)C(=O)N[C@@H](CCCNC(=N)N)C(=O)N[C@@H](CCC(=O)O)C(=O)N[C@@H](CCCNC(=N)N)C(=O)N[C@@H](Cc1ccc(OCc2cn([C@H]3O[C@@H](CO)[C@@H](O)[C@@H](O)[C@@H]3O)nn2)cc1)C(=O)O (Biotin-RRRRRRRRERY(X2)-OH)
10 | 42.4 | 41.5 |  | CC(=O)N[C@@H]1[C@H](OCCCn2cc(COc3ccc(C[C@H](NC(=O)[C@H](CCCNC(=N)N)NC(=O)[C@H](CCC(=O)O)NC(=O)[C@H](CCCNC(=N)N)NC(=O)[C@H](CCCNC(=N)N)NC(=O)[C@H](CCCNC(=N)N)NC(=O)[C@H](CCCNC(=N)N)NC(=O)[C@H](CCCNC(=N)N)NC(=O)[C@H](CCCNC(=N)N)NC(=O)[C@H](CCCNC(=N)N)NC(=O)[C@H](CCCNC(=N)N)NC(=O)CCCC[C@@H]4SC[C@@H]5NC(=O)N[C@@H]54)C(=O)O)cc3)nn2)O[C@@H](CO)[C@@H](O)[C@H]1O (Biotin-RRRRRRRRERY(X9)-OH)
